ChEMBL document CHEMBL1201862, “PubChem BioAssay data set” (2004)
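Each compound was tested at five concentrations against cells in 96-well plates for 48 hours. GI50 is the concentration that inhibits growth by half.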 Calls of active or inactive are those of the source. Cut-off read from the data, not from the text of the source: active = GI50 up to about 1.1 µM and inactive = higher.

Legend:
Experiment in all cases: inhibition of tumour cell growth, NCI panel, 48 h
LOX IMVI = system: LOX IMVI
M14 = system: M14
KM-20L2 = system: KM-20L2
OVCAR-5 = system: OVCAR-5
HCC 2998 = system: HCC 2998
SNB-19 = system: SNB-19
MOLT-4 = system: MOLT-4
OVCAR-3 = system: OVCAR-3
ACHN = system: ACHN
M19-MEL = system: M19-MEL
K562 = system: K562
U-251 = system: U-251
SK-OV-3 = system: SK-OV-3
HCT-15 = system: HCT-15
SF-539 = system: SF-539
UACC-62 = system: UACC-62
UO-31 = system: UO-31
KM12 = system: KM12
CCRF-CEM = system: CCRF-CEM
DMS-273 = system: DMS-273
IGROV-1 = system: IGROV-1
NCI-H460 = system: NCI-H460
SF-295 = system: SF-295
HCT-116 = system: HCT-116
RPMI-8226 = system: RPMI-8226
786-0 = system: 786-0
SN12C = system: SN12C
HOP-92 = system: HOP-92
HOP-18 = system: HOP-18
NCI-H522 = system: NCI-H522
SK-MEL-28 = system: SK-MEL-28
NCI-H23 = system: NCI-H23
UACC-257 = system: UACC-257
HT-29 = system: HT-29
OVCAR-8 = system: OVCAR-8
EKVX = system: EKVX
SK-MEL-2 = system: SK-MEL-2
LXFL 529 = system: LXFL 529
A549 = system: A549
OVCAR-4 = system: OVCAR-4
TK-10 = system: TK-10
SK-MEL-5 = system: SK-MEL-5
SNB-78 = system: SNB-78
Malme-3M = system: Malme-3M
XF498 = system: XF498
SNB-75 = system: SNB-75
RXF 393 = system: RXF 393
SW-620 = system: SW-620
COLO 205 = system: COLO 205
NCI-H226 = system: NCI-H226
HL-60 = system: HL-60
SF-268 = system: SF-268
DLD-1 = system: DLD-1
SR = system: SR
A498 = system: A498
DMS-114 = system: DMS-114
HOP-62 = system: HOP-62
CAKI-1 = system: CAKI-1

Measured: GI50

O=C1C(=Cc2ccc([N+](=O)[O-])o2)C(=O)N(CCc2ccccc2)S(=O)(=O)N1CCc1ccccc1
inactive: LOX IMVI 18.7 µM | M14 15.4 µM | KM-20L2 > 100 µM | OVCAR-5 > 100 µM | HCC 2998 > 100 µM | SNB-19 > 100 µM | MOLT-4 19.2 µM | OVCAR-3 17.4 µM | ACHN 17.1 µM | M19-MEL 17.7 µM | K562 37 µM | U-251 > 100 µM | SK-OV-3 > 100 µM | SF-539 38.1 µM | UACC-62 16.9 µM | UO-31 45.3 µM | KM12 > 100 µM | CCRF-CEM 27.7 µM | DMS-273 32.7 µM | IGROV-1 > 100 µM | NCI-H460 > 100 µM | SF-295 > 100 µM | HCT-116 16.3 µM | RPMI-8226 27.4 µM | 786-0 20.3 µM | SN12C 50.4 µM | HOP-92 19.3 µM | HOP-18 42.2 µM | NCI-H522 19.9 µM | SK-MEL-28 14.6 µM | NCI-H23 16.8 µM | UACC-257 63 µM | HT-29 33.5 µM | OVCAR-8 28.9 µM | EKVX > 100 µM | SK-MEL-2 16.6 µM | LXFL 529 16.8 µM | A549 > 100 µM | OVCAR-4 16.3 µM | TK-10 42.2 µM | SK-MEL-5 18.7 µM | SNB-78 26.1 µM | Malme-3M 17.1 µM | XF498 20.4 µM | SNB-75 37.9 µM | RXF 393 19.5 µM | SW-620 19.5 µM | COLO 205 20.2 µM | NCI-H226 24.7 µM | HL-60 12.6 µM | SF-268 21.8 µM | DLD-1 17.6 µM | SR 14.3 µM
16.3 µM: HCT-15

CC(C)Cc1cc(CCC(=O)Nc2ccccc2[N+](=O)[O-])nc(NC#N)n1
inactive: LOX IMVI > 100 µM | M14 > 100 µM | KM-20L2 > 100 µM | OVCAR-5 > 100 µM | HCC 2998 > 100 µM | SNB-19 > 100 µM | MOLT-4 > 100 µM | OVCAR-3 > 100 µM | ACHN > 100 µM | M19-MEL > 100 µM | K562 > 100 µM | U-251 > 100 µM | SK-OV-3 > 100 µM | A498 > 100 µM | SF-539 > 100 µM | UACC-62 > 100 µM | UO-31 > 100 µM | KM12 > 100 µM | CCRF-CEM > 100 µM | IGROV-1 > 100 µM | NCI-H460 > 100 µM | SF-295 > 100 µM | DMS-114 > 100 µM | HOP-62 > 100 µM | HCT-116 > 100 µM | CAKI-1 > 100 µM | RPMI-8226 > 100 µM | 786-0 > 100 µM | SN12C > 100 µM | HOP-92 > 100 µM | HOP-18 > 100 µM | NCI-H522 > 100 µM | SK-MEL-28 > 100 µM | NCI-H23 > 100 µM | UACC-257 > 100 µM | HT-29 > 100 µM | OVCAR-8 > 100 µM | EKVX > 100 µM | LXFL 529 > 100 µM | A549 > 100 µM | OVCAR-4 > 100 µM | TK-10 > 100 µM | SK-MEL-5 > 100 µM | Malme-3M > 100 µM | XF498 > 100 µM | SNB-75 > 100 µM | RXF 393 > 100 µM | SW-620 > 100 µM | COLO 205 > 100 µM | NCI-H226 > 100 µM | HL-60 > 100 µM | SF-268 > 100 µM | DLD-1 > 100 µM | SR > 100 µM
> 100 µM: HCT-15
